Results as given in ChEMBL document CHEMBL3885881, “DrugMatrix”.

Species: Rattus norvegicus
Test: DrugMatrix - Regimen: Daily Repeat
Assay type: toxicity, organism-based, Sprague-Dawley
Parameters: regimen Daily Repeat, gender Male, age 6-8 weeks
Details: in vivo, po, […], route oral GAVAGE; for ABSOLUTE BASOPHIL / ABSOLUTE EOSINOPHIL / ABSOLUTE LYMPHOCYTE / ABSOLUTE MONOCYTE / ABSOLUTE SEGMENTED NEUTROPHIL / BASOPHIL / EOSINOPHIL / ERYTHROCYTE COUNT / HEMATOCRIT / HEMOGLOBIN / LEUKOCYTE COUNT / LYMPHOCYTE / MEAN CORPUSCULAR HEMOGLOBIN / MEAN CORPUSCULAR HEMOGLOBIN CONCENTRATION / MEAN CORPUSCULAR VOLUME / MONOCYTE / NEUTROPHIL / NUCLEATED RED BLOOD CELLS / PLATELET COUNT: tissue Blood; for ALANINE AMINOTRANSFERASE / ALBUMIN / ALKALINE PHOSPHATASE / ASPARTATE AMINOTRANSFERASE / BLOOD UREA NITROGEN / CARBON DIOXIDE / CHLORIDE / CHOLESTEROL / CREATINE PHOSPHOKINASE / CREATININE / GLUCOSE / LACTATE DEHYDROGENASE / LIPASE / PHOSPHORUS / POTASSIUM / SODIUM / TOTAL BILIRUBIN / TOTAL PROTEIN / URIC ACID: tissue Plasma
[1] = 30 mg/kg, dose level Low, time 7 day
[2] = 60 mg/kg, 72 h, dose level High, time 3 day
[3] = 60 mg/kg, dose level High, time 7 day

S=C=Nc1cccc2ccccc12 [1-NAPHTHYLISOTHIOCYANATE]
ABSOLUTE BASOPHIL [1]: 0 CELLS/uL | ABSOLUTE EOSINOPHIL [1]: 0 CELLS/uL | ABSOLUTE LYMPHOCYTE [1]: 18648 CELLS/uL | ABSOLUTE MONOCYTE [1]: 658.33 CELLS/uL | ABSOLUTE SEGMENTED NEUTROPHIL [1]: 6027 CELLS/uL | BASOPHIL [1]: 0% | EOSINOPHIL [1]: 0% | ERYTHROCYTE COUNT [1]: 5.54 x10E6/uL | HEMATOCRIT [1]: 31.6% | HEMOGLOBIN [1]: 13.02 G/DL | LEUKOCYTE COUNT [1]: 25.33 x10E3/uL | LYMPHOCYTE [1]: 74.17% | MEAN CORPUSCULAR HEMOGLOBIN [1]: 23.55 pg | MEAN CORPUSCULAR HEMOGLOBIN CONCENTRATION [1]: 41.2 G/DL | MEAN CORPUSCULAR VOLUME [1]: 57.07 fL | MONOCYTE [1]: 2.33% | NEUTROPHIL [1]: 23.5% | NUCLEATED RED BLOOD CELLS [1]: 0 /100WBC | PLATELET COUNT [1]: 1468.17 x10E3/uL | ALANINE AMINOTRANSFERASE [1]: 195.83 u/L | ALBUMIN [1]: 3.78 G/DL | ALKALINE PHOSPHATASE [1]: 515.67 u/L | ASPARTATE AMINOTRANSFERASE [1]: 302 u/L | BLOOD UREA NITROGEN [1]: 11.83 mg/dL | CARBON DIOXIDE [1]: 27.67 mmol/L | CHLORIDE [1]: 96.67 MEQ/L | CHOLESTEROL [1]: 137 mg/dL | CREATINE PHOSPHOKINASE [1]: 291.83 u/L | CREATININE [1]: 0.18 mg/dL | GLUCOSE [1]: 98.33 mg/dL | LACTATE DEHYDROGENASE [1]: 164.67 u/L | LIPASE [1]: 11 u/L | PHOSPHORUS [1]: 8.68 mg/dL | POTASSIUM [1]: 6.99 MEQ/L | SODIUM [1]: 139.38 MEQ/L | TOTAL BILIRUBIN [1]: 3.15 mg/dL | TOTAL PROTEIN [1]: 6.52 G/DL | URIC ACID [1]: 0.93 mg/dL | ABSOLUTE BASOPHIL [2]: 0 CELLS/uL | ABSOLUTE EOSINOPHIL [2]: 24.67 CELLS/uL | ABSOLUTE LYMPHOCYTE [2]: 8862.67 CELLS/uL | ABSOLUTE MONOCYTE [2]: 317.33 CELLS/uL | ABSOLUTE SEGMENTED NEUTROPHIL [2]: 2312 CELLS/uL | BASOPHIL [2]: 0% | EOSINOPHIL [2]: 0.33% | ERYTHROCYTE COUNT [2]: 6.41 x10E6/uL | HEMATOCRIT [2]: 39.08% | HEMOGLOBIN [2]: 14.75 G/DL | LEUKOCYTE COUNT [2]: 11.52 x10E3/uL | LYMPHOCYTE [2]: 77% | MEAN CORPUSCULAR HEMOGLOBIN [2]: 23 pg | MEAN CORPUSCULAR HEMOGLOBIN CONCENTRATION [2]: 37.77 G/DL | MEAN CORPUSCULAR VOLUME [2]: 60.88 fL | MONOCYTE [2]: 2.5% | NEUTROPHIL [2]: 20.17% | NUCLEATED RED BLOOD CELLS [2]: 0.17 /100WBC | PLATELET COUNT [2]: 1204.67 x10E3/uL | ALANINE AMINOTRANSFERASE [2]: 183.5 u/L | ALBUMIN [2]: 3.77 G/DL | ALKALINE PHOSPHATASE [2]: 566.83 u/L | ASPARTATE AMINOTRANSFERASE [2]: 458.5 u/L | BLOOD UREA NITROGEN [2]: 11.67 mg/dL | CARBON DIOXIDE [2]: 28.67 mmol/L | CHLORIDE [2]: 94.67 MEQ/L | CHOLESTEROL [2]: 312 mg/dL | CREATINE PHOSPHOKINASE [2]: 420.5 u/L | CREATININE [2]: 0.28 mg/dL | GLUCOSE [2]: 125.17 mg/dL | LACTATE DEHYDROGENASE [2]: 229.33 u/L | LIPASE [2]: 12.5 u/L | PHOSPHORUS [2]: 8.75 mg/dL | POTASSIUM [2]: 6.43 MEQ/L | SODIUM [2]: 140.67 MEQ/L | TOTAL BILIRUBIN [2]: 3.47 mg/dL | TOTAL PROTEIN [2]: 6.93 G/DL | URIC ACID [2]: 0.85 mg/dL | ABSOLUTE BASOPHIL [3]: 0 CELLS/uL | ABSOLUTE EOSINOPHIL [3]: 0 CELLS/uL | ABSOLUTE LYMPHOCYTE [3]: 17693.83 CELLS/uL | ABSOLUTE MONOCYTE [3]: 897.83 CELLS/uL | ABSOLUTE SEGMENTED NEUTROPHIL [3]: 12275 CELLS/uL | BASOPHIL [3]: 0% | EOSINOPHIL [3]: 0% | ERYTHROCYTE COUNT [3]: 5.43 x10E6/uL | HEMATOCRIT [3]: 31.22% | HEMOGLOBIN [3]: 12.83 G/DL | LEUKOCYTE COUNT [3]: 30.87 x10E3/uL | LYMPHOCYTE [3]: 60.83% | MEAN CORPUSCULAR HEMOGLOBIN [3]: 23.63 pg | MEAN CORPUSCULAR HEMOGLOBIN CONCENTRATION [3]: 41.02 G/DL | MEAN CORPUSCULAR VOLUME [3]: 57.68 fL | MONOCYTE [3]: 2.67% | NEUTROPHIL [3]: 36.5% | NUCLEATED RED BLOOD CELLS [3]: 0 /100WBC | PLATELET COUNT [3]: 1574.83 x10E3/uL | ALANINE AMINOTRANSFERASE [3]: 179.83 u/L | ALBUMIN [3]: 3.78 G/DL | ALKALINE PHOSPHATASE [3]: 516 u/L | ASPARTATE AMINOTRANSFERASE [3]: 418 u/L | BLOOD UREA NITROGEN [3]: 12.33 mg/dL | CARBON DIOXIDE [3]: 26.67 mmol/L | CHLORIDE [3]: 94 MEQ/L | CHOLESTEROL [3]: 384.5 mg/dL | CREATINE PHOSPHOKINASE [3]: 339.67 u/L | CREATININE [3]: 0.1 mg/dL | GLUCOSE [3]: 96.33 mg/dL | LACTATE DEHYDROGENASE [3]: 286.67 u/L | LIPASE [3]: 12.17 u/L | PHOSPHORUS [3]: 8.75 mg/dL | POTASSIUM [3]: 6.62 MEQ/L | SODIUM [3]: 137.88 MEQ/L | TOTAL BILIRUBIN [3]: 8.2 mg/dL | TOTAL PROTEIN [3]: 6.48 G/DL | URIC ACID [3]: 0.87 mg/dL
